Assay results: patent US12655116B2, “Substituted isophthalic acid diamides” (Bayer Aktiengesellschaft, priority 2020, dated 2026)

Columns and labels:
MATIN [1] = experiment: Post-emergence herbicidal action against MATIN; assay type: in vivo, Matricaria inodora; conditions: Tripleurospermum inodorum, 504 h; for pest or weed control at 5 g/ha: dosage 5 g/ha; for pest or weed control at 20 g/ha: dosage 20 g/ha
Outline: (§1)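 Weeds in sandy loam soil received a post-emergence spray at the one-leaf stage. Compounds were applied as WP or EC in water, 600 to 800 l/ha, with 0.2% wetting agent. Activity in % was judged visually after roughly 3 weeks against untreated plants.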

POLCO [2] = experiment: Pre-emergence herbicidal action against POLCO; assay type: in vivo, Polygonum convolvulus; conditions: Fallopia convolvulus, 504 h, dosage 80 g/ha
Outline: (§2)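 Visual rating at 3 weeks vs untreated pots; 0–100% scale, 100% = plants died. Treatment: aqueous WP/EC spray onto covering soil, 600–800 l/ha, 0.2% wetter, seeds in sandy loam.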

ALOMY [3] = experiment: Pre-emergence herbicidal action against ALOMY; assay type: in vivo, Alopecurus myosuroides; conditions: Alopecurus myosuroides, 504 h, pre-emergence; for pest or weed control at 80 g/ha: scored visually after 3 weeks vs untreated controls (100% = plants have died, 0% = like control plants)
Outline: as §2

SETVI [4] = experiment: Post-emergence herbicidal action against SETVI; assay type: in vivo, Setaria viridis; conditions: Setaria viridis, 504 h; for pest or weed control at 5 g/ha: dosage 5 g/ha; for pest or weed control at 20 g/ha: dosage 20 g/ha
Outline: as §1

PHBPU [5] = experiment: Pre-emergence herbicidal action against PHBPU; assay type: in vivo, Pharbitis purpurea; conditions: Ipomoea purpurea, 504 h, dosage 80 g/ha
Outline: as §2

ECHCG [6] = experiment: Post-emergence herbicidal action against ECHCG; assay type: in vivo, Echinochloa crus-galli; conditions: Echinochloa crus-galli, 504 h; for pest or weed control at 20 g/ha: dosage 20 g/ha
Outline: as §1

ABUTH [7] = experiment: Pre-emergence herbicidal action against ABUTH; assay type: in vivo, Abutilon theophrasti; conditions: Abutilon theophrasti, 504 h; for pest or weed control at 80 g/ha: scored visually after 3 weeks vs untreated controls (100% = plants have died, 0% = like control plants)
Outline: as §2

STEME [8] = experiment: Pre-emergence herbicidal action against STEME; assay type: in vivo, Stellaria media; conditions: Stellaria media, 504 h
Outline: as §2

DIGSA [9] = experiment: Post-emergence herbicidal action against DIGSA; assay type: in vivo, Digitaria sanguinalis; conditions: Digitaria sanguinalis, 504 h
Outline: as §1

DIGSA [10] = experiment: Pre-emergence herbicidal action against DIGSA; assay type: in vivo, Digitaria sanguinalis; conditions: Digitaria sanguinalis, 504 h; for pest or weed control at 20 g/ha: dosage 20 g/ha; for pest or weed control at 80 g/ha: dosage 80 g/ha
Outline: as §2

PHBPU [11] = experiment: Post-emergence herbicidal action against PHBPU; assay type: in vivo, Pharbitis purpurea; conditions: Ipomoea purpurea, 504 h; for pest or weed control at 20 g/ha: dosage 20 g/ha
Outline: as §1

VIOTR [12] = experiment: Pre-emergence herbicidal action against VIOTR; assay type: in vivo, Viola tricolor; conditions: Viola tricolor, 504 h; for pest or weed control at 20 g/ha: dosage 20 g/ha; for pest or weed control at 80 g/ha: dosage 80 g/ha
Outline: as §2

AVEFA [13] = experiment: Post-emergence herbicidal action against AVEFA; assay type: in vivo, Avena fatua; conditions: Avena fatua, 504 h, 20 g/ha, visual assessment about 3 weeks after treatment, 100% = plants have died, 0% = like control plants
Outline: as §1

POLCO [14] = experiment: Post-emergence herbicidal action against POLCO; assay type: in vivo, Polygonum convolvulus; conditions: Fallopia convolvulus, 504 h, dosage 20 g/ha
Outline: as §1

MATIN [15] = experiment: Pre-emergence herbicidal action against MATIN; assay type: in vivo, Matricaria inodora; conditions: Tripleurospermum inodorum, 504 h; for pest or weed control at 20 g/ha: dosage 20 g/ha; for pest or weed control at 80 g/ha: dosage 80 g/ha
Outline: as §2

AMARE [16] = experiment: Post-emergence herbicidal action against AMARE; assay type: in vivo, Amaranthus retroflexus; conditions: Amaranthus retroflexus, 504 h, 20 g/ha, visual assessment about 3 weeks after treatment, 100% = plants have died, 0% = like control plants
Outline: as §1

ABUTH [17] = experiment: Post-emergence herbicidal action against ABUTH; assay type: in vivo, Abutilon theophrasti; conditions: Abutilon theophrasti, 504 h, visual assessment about 3 weeks after treatment vs untreated controls; for pest or weed control at 20 g/ha: dosage 20 g/ha
Outline: as §1

VERPE [18] = experiment: Post-emergence herbicidal action against VERPE; assay type: in vivo, Veronica persica; conditions: Veronica persica, 504 h
Outline: as §1

ALOMY [19] = experiment: Post-emergence herbicidal action against ALOMY; assay type: in vivo, Alopecurus myosuroides; conditions: Alopecurus myosuroides, 504 h, dosage 20 g/ha, visual assessment about 3 weeks after treatment vs untreated controls
Outline: as §1

AMARE [20] = experiment: Pre-emergence herbicidal action against AMARE; assay type: in vivo, Amaranthus retroflexus; conditions: Amaranthus retroflexus, 504 h, scored visually after 3 weeks vs untreated controls, 100% = plants have died, 0% = like control plants
Outline: as §2

SETVI [21] = experiment: Pre-emergence herbicidal action against SETVI; assay type: in vivo, Setaria viridis; conditions: Setaria viridis, 504 h, dosage 80 g/ha
Outline: as §2

VIOTR [22] = experiment: Post-emergence herbicidal action against VIOTR; assay type: in vivo, Viola tricolor; conditions: Viola tricolor, 504 h
Outline: as §1

VERPE [23] = experiment: Pre-emergence herbicidal action against VERPE; assay type: in vivo, Veronica persica; conditions: Veronica persica, 504 h, dosage 80 g/ha
Outline: as §2

STEME [24] = experiment: Post-emergence herbicidal action against STEME; assay type: in vivo, Stellaria media; conditions: Stellaria media, 504 h
Outline: as §1

AVEFA [25] = experiment: Pre-emergence herbicidal action against AVEFA; assay type: in vivo, Avena fatua; conditions: Avena fatua, 504 h; 80 g/ha, pre-emergence
Outline: as §2

ECHCG [26] = experiment: Pre-emergence herbicidal action against ECHCG; assay type: in vivo, Echinochloa crus-galli; conditions: Echinochloa crus-galli, 504 h
Outline: as §2

LOLRI = experiment: Pre-emergence herbicidal action against LOLRI; assay type: in vivo, Lolium rigidum; conditions: Lolium rigidum, 504 h, 80 g/ha
Outline: as §2

With `CCNC(=O)c1c(C(F)F)ccc(C(=O)Nc2nnnn2C)c1SC` [Example 1-88] the pest or weed control at 5 g/ha (MATIN [1]) was 80%, the pest or weed control at 20 g/ha (MATIN [1]) was 80% and the pest or weed control at 80 g/ha (POLCO [2]) was 80%. The pest or weed control at 80 g/ha (ALOMY [3]) was 90%, the pest or weed control at 5 g/ha (SETVI [4]) was 80% and the pest or weed control at 20 g/ha (SETVI [4]) was 90%. For the same compound, the pest or weed control at 80 g/ha (PHBPU [5]) was 90%, the pest or weed control at 5 g/ha (ECHCG [6]; dosage 5 g/ha) was 80% and the pest or weed control at 20 g/ha (ECHCG [6]) was 90%. For the same compound, the pest or weed control at 80 g/ha (ABUTH [7]) was 100%, the pest or weed control at 20 g/ha (ABUTH [7]; dosage 20 g/ha, scored visually after 3 weeks vs untreated controls, 100% = plants have died, 0% = like control plants, read-out: Pre-emergence action against ABUTH (herbicidal activity in percent)) was 100% and the pest or weed control at 20 g/ha (STEME [8]; dosage 20 g/ha) was 100%. For the same compound, the pest or weed control at 80 g/ha (STEME [8]; dosage 80 g/ha) was 100%, the pest or weed control at 5 g/ha (DIGSA [9]; 5 g/ha) was 90% and the pest or weed control at 20 g/ha (DIGSA [9]; 20 g/ha) was 90%. For the same compound, the pest or weed control at 20 g/ha (DIGSA [10]) was 100%, the pest or weed control at 80 g/ha (DIGSA [10]) was 100% and the pest or weed control at 5 g/ha (PHBPU [11]; dosage 5 g/ha) was 80%. For the same compound, the pest or weed control at 20 g/ha (PHBPU [11]) was 90%, the pest or weed control at 20 g/ha (VIOTR [12]) was 100% and the pest or weed control at 80 g/ha (VIOTR [12]) was 100%. The pest or weed control at 20 g/ha (AVEFA [13]) was 80%, the pest or weed control at 20 g/ha (POLCO [14]) was 80% and the pest or weed control at 20 g/ha (MATIN [15]) was 100%. The pest or weed control at 80 g/ha (MATIN [15]) was 100%, the pest or weed control at 20 g/ha (AMARE [16]) was 90% and the pest or weed control at 5 g/ha (ABUTH [17]; dosage 5 g/ha) was 90%. It also gave a pest or weed control at 20 g/ha (ABUTH [17]) of 90%, a pest or weed control at 5 g/ha (VERPE [18]; 5 g/ha) of 80% and a pest or weed control at 20 g/ha (VERPE [18]; 20 g/ha) of 90%. It also gave a pest or weed control at 20 g/ha (ALOMY [19]) of 80%, a pest or weed control at 20 g/ha (AMARE [20]) of 100% and a pest or weed control at 80 g/ha (AMARE [20]) of 100%. The pest or weed control at 80 g/ha (SETVI [21]) was 100%, the pest or weed control at 20 g/ha (VIOTR [22]) was 80% and the pest or weed control at 80 g/ha (VERPE [23]) was 100%. The pest or weed control at 20 g/ha (STEME [24]; 20 g/ha) was 90%, the pest or weed control at 5 g/ha (STEME [24]; dosage 5 g/ha) was 90% and the pest or weed control at 80 g/ha (AVEFA [25]) was 90%. It also gave a pest or weed control at 20 g/ha (ECHCG [26]; 20 g/ha) of 90% and a pest or weed control at 80 g/ha (ECHCG [26]) of 100%.
`CCn1nnnc1NC(=O)c1ccc(Br)c(C(=O)NC2CC2)c1Cl` [Example 2-179] showed a pest or weed control at 5 g/ha (MATIN [1]) of 80%, a pest or weed control at 20 g/ha (MATIN [1]) of 90% and a pest or weed control at 80 g/ha (ALOMY [3]) of 100%. For the same compound, the pest or weed control at 20 g/ha (ALOMY [3]; 20 g/ha, scored visually after 3 weeks, 100% = plants have died, 0% = like control plants) was 80%, the pest or weed control at 5 g/ha (SETVI [4]) was 90% and the pest or weed control at 20 g/ha (SETVI [4]) was 90%. It also gave a pest or weed control at 80 g/ha (PHBPU [5]) of 80%, a pest or weed control at 20 g/ha (ECHCG [6]) of 80% and a pest or weed control at 80 g/ha (ABUTH [7]) of 100%. For the same compound, the pest or weed control at 20 g/ha (DIGSA [10]) was 100%, the pest or weed control at 80 g/ha (DIGSA [10]) was 100% and the pest or weed control at 20 g/ha (PHBPU [11]) was 80%. The pest or weed control at 20 g/ha (VIOTR [12]) was 100%, the pest or weed control at 80 g/ha (VIOTR [12]) was 100% and the pest or weed control at 20 g/ha (POLCO [14]) was 90%. It also gave a pest or weed control at 20 g/ha (MATIN [15]) of 100%, a pest or weed control at 80 g/ha (MATIN [15]) of 100% and a pest or weed control at 20 g/ha (AMARE [16]) of 100%. For the same compound, the pest or weed control at 20 g/ha (ABUTH [17]) was 90%, the pest or weed control at 80 g/ha (LOLRI) was 80% and the pest or weed control at 20 g/ha (ALOMY [19]) was 90%. For the same compound, the pest or weed control at 20 g/ha (AMARE [20]) was 100%, the pest or weed control at 80 g/ha (AMARE [20]) was 100% and the pest or weed control at 80 g/ha (SETVI [21]) was 100%. For the same compound, the pest or weed control at 5 g/ha (VIOTR [22]; 5 g/ha) was 90%, the pest or weed control at 20 g/ha (VIOTR [22]) was 100% and the pest or weed control at 80 g/ha (VERPE [23]) was 90%. The pest or weed control at 80 g/ha (AVEFA [25]) was 100% and the pest or weed control at 80 g/ha (ECHCG [26]) was 100%.
